Experimental data: US20100041665A1, “N-PHENYL-PRENYLAMINE DERIVATIVES FOR THE TREATMENT OF COGNITIVE, NEURODEGENERATIVE OR NEURONAL DISEASES OR DISORDERS” (NOSCIRA, S.A., priority 2006, published 2010)

Legend:
[1] = target: Recombinant human glycogen synthase kinase 3 beta (Homo sapiens, UniProt P49841); test: GSK-3 beta inhibition assay; type: biochemical; details: percentage of enzyme activity; for remaining activity at 25 µM / remaining activity at 50 µM: 0.5 h
Method: GSK-3 beta Inhibition Assay
The GSK-3 beta activity of the compounds of formula (I) according to the present invention was determined by incubation of a mixture of recombinant human GSK-3 enzyme, a phosphate source and GSK-3 substrate in the presence and in the absence of the corresponding test compound, and by measuring the GSK-3 activity of this mixture. The compounds where tested at final concentrations of 25 and 50 μM.
Recombinant human glycogen synthase kinase 3 beta was assayed in MOPS 11 mM, pH 7.4, EDTA 0.2 mM, EGTA 1.25 mM, MgCl2 26.25 mM and sodium orthovanadate 0.25 mM in the presence of 62.5 μM of Phospho-Glycogen Synthase Peptide-2 (GS-2), 0.5 μCi gamma-^33P-ATP and unlabelled ATP at a final concentration of 12.5 μM. The final assay volume was 20 μl. After incubation for 30 minutes at 30° C., 15 μl aliquots were spotted onto P81 phosphocellulose papers. Filters were washed four times for at least 10 minutes each and counted with 1.5 ml of scintillation cocktail in a scintillation counter.
(§1) The compounds of formula (I) of the present invention where submitted to the above indicated assays, in order to determine both their GSK-3 inhibition activity and BACE activity inhibition. The results are indicated in Table I and Table II, in percentage of the respective enzyme activity.

[2] = target: T1, rhBACE-1 β-Secretase recombinant human (Homo sapiens, UniProt P56817); test: BACE assay (FRET); type: biochemical; details: percentage of enzyme activity
T1 construct: purchased R&D Systems 931-AS
T1 sequence (P56817 46-457 limits assumed): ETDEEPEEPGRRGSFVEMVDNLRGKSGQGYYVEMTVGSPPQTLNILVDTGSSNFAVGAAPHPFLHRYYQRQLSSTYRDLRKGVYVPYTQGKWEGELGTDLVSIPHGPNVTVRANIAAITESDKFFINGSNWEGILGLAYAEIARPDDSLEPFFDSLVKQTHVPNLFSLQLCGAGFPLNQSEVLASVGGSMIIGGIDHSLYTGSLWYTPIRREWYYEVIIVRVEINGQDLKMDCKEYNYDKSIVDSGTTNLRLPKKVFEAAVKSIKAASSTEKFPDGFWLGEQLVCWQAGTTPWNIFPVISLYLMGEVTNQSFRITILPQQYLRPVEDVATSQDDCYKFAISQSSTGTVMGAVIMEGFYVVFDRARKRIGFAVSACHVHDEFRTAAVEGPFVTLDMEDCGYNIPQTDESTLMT
Description: The aim of this assay is to determine if a compound, either synthetic or of marine origin, is a BACE-1 inhibitor, to avoid the formation of Aβ. This assay is based on FRET technology (Fluorescence Resonance Energy Transfer). FRET is used to measure cleavage of a peptide substrate, among other uses. […] When a substrate peptide cleavage occurs, the energy balance is broken and all the donor fluorescence can be observed. The increase in fluorescence is linearly related to the rate of proteolysis (Gordon, G W et al., 1998). In this assay the reaction occurs between an enzyme, purified BACE-1, and a fluorogenic peptidic substrate who present the “Swedish mutation”. The peptide cleavage by BACE-1 produces fluorescence energy and enzymatic activity can be quantified.
The reagents which are used in this assay are the following: • rhBACE-1 β-Secretase recombinant human (R&D Systems. Ref. 931-AS). • Fluorogenic Peptide Substrate IV (R&D Systems. Ref. ES004). • Beta-SECRETASE INHIBITOR H-4848. (BACHEM. Ref. H-4848.0001). • Sodium acetate.
The assay is carried out in a 96 wells microplate. The final concentration of substrate is 3.5 μM per well, and the enzyme concentration is 0.5 μg/ml. The final volume of the assay is 100 μl per well and all reagents are diluted in Reaction Buffer. The compounds are tested at a concentration of 10^−5 and 10^−6 M. The control in the assay is the commercial inhibitor β-Secretase inhibitor H-4848 from BACHEM, which is tested at 300 nM. All the samples and controls are studied by duplicate.
The plate is mixed gently and changes in the fluorescence are measured using a fluorimeter plate reader, with 320 nm excitation filter and 405 nm emission filter. The temperature should be preferably maintained between 25 and 30° C. Measurements are carried out every ten minutes during an hour. The first measure is subtracted from the last to calculate the fluorescence increase, evaluating the enzymatic activity. The 100% activity is calculated as the mean of the results of wells without sample or inhibitor.
In the cases where abnormal effects in fluorescence were detected, BACE inhibition activity was assayed using BACE-1 (beta-Secretase) FRET ASSAY KIT (Invitrogen, Ref. P2985). Fluorescence was measured with a fluorimeter plate reader, with 544 nm excitation filter and 580 nm emission filter.
as §1

Chain of Recombinant human glycogen synthase kinase 3 beta (P49841 whole entry): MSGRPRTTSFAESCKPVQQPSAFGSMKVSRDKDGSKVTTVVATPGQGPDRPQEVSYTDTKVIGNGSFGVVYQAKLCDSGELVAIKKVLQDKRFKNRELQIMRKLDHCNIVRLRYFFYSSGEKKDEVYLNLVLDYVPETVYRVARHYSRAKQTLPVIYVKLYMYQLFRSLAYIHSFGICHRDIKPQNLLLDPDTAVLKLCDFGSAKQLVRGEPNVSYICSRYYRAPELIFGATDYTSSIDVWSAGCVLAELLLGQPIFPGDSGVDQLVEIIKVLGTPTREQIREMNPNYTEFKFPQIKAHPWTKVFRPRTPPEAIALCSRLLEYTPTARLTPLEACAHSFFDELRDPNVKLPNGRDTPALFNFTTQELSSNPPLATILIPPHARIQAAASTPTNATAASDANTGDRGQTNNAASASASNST

Row | SMILES | remaining activity at 25 µM ([1]; compound at 25 μM) | remaining activity at 50 µM ([1]; compound at 50 μM) | % of BACE activity ([2]; compound at 1 μM) | % of BACE activity ([2]; compound at 10 μM) | % GSK-3 beta activity ([1]; compound at 25 μM) | % GSK-3 beta activity ([1]; compound at 50 μM)
1 | COc1ccc(C(=O)O)cc1NC/C=C(\C)CC/C=C(\C)CCC=C(C)C [Compound 5] | 70.2% | 52.8% | 50 ± 9% | 0% |  | 
2 | COC(=O)c1cccc(NC/C=C(\C)CC/C=C(\C)CCC=C(C)C)c1 [Compound 7] |  | 54.7% | 0% | 0% |  | 
3 | CC(C)=CCC/C(C)=C/CC/C(C)=C/CNc1cccc(C(=O)O)c1 [Compound 9] | 84.1% | 39.6% | 89.5 ± 9% | 25.5 ± 6% |  | 
4 | COc1ccccc1NCC=C(C)CCC=C(C)CCC=C(C)C [Compound 12, (2-Methoxy-phenyl)-(3,7,11-trimethyl-dodeca-2,6,10-trienyl)-amine] | 74.8% | 56.7% | 94 ± 8% | 64.5 ± 9% |  | 
5 | CC(C)=CCCC(C)=CCNc1cccc(C(=O)O)c1 [Compound 13, 3-(3,7-Dimethyl-octa-2,6-dienylamino)-benzoic acid] | 55.5% | 35.5% | 75 ± 5% | 70 ± 19% |  | 
6 | COCOc1ccc(C(=O)OC)cc1NC/C=C(\C)CC/C=C(\C)CCC=C(C)C [Compound 14] | 61.8% | 25.4% | 60 ± 17% | 4 ± 6% |  | 
7 | COC(=O)c1ccc(OC)c(N(C/C=C(\C)CCC=C(C)C)C/C=C(\C)CCC=C(C)C)c1 [Compound 17] |  |  | 43 ± 15% | 0% | 73.2% | 42.14%
8 | COC(=O)c1ccc(OC)c(N(C/C=C(\C)CC/C=C(\C)CCC=C(C)C)C/C=C(\C)CC/C=C(\C)CCC=C(C)C)c1 [Compound 18] | 56.6% | 5.35% | 100% | 100% |  | 
9 | COc1ccc(C(=O)O)cc1N(CC=C(C)CCC=C(C)CCC=C(C)C)CC=C(C)CCC=C(C)CCC=C(C)C [Compound 19, 3-[Bis-(3,7,11-trimethyl-dodeca-2,6,10-trienyl)-amino]-4-methoxy-benzoic acid] | 30.6% | 15.3% | 60 ± 14% | 46 ± 28% |  | 
10 | COC(=O)c1cccc(N(CC=C(C)CCC=C(C)C)CC=C(C)CCC=C(C)C)c1 [Compound 20, 3-[Bis-(3,7-dimethyl-octa-2,6-dienyl)-amino]-benzoic acid methyl ester] | 67.3% | 36.2% | 76 ± 25% | 3 ± 5% |  | 
11 | CC(C)=CCC/C(C)=C/CC/C(C)=C/CN(C/C=C(\C)CC/C=C(\C)CCC=C(C)C)c1cccc(C(=O)O)c1 [Compound 23] | 37.4% | 21.6% | 41 ± 12% | 0% |  | 
12 | CC(C)=CCC/C(C)=C/CN(C/C=C(\C)CCC=C(C)C)c1cccc(C(=O)O)c1 [Compound 24] | 37.4% | 24.6% | 24 ± 12% | 1.6 ± 2% |  | 
13 | COc1ccccc1N(C/C=C(\C)CCC=C(C)C)C/C=C(\C)CCC=C(C)C [Compound 27] | 90.7% | 59.6% | 88.5 ± 0.7% | 51 ± 16% |  | 
14 | COC(=O)c1ccc(O)c(N(CC=C(C)CCC=C(C)CCC=C(C)C)CC=C(C)CCC=C(C)CCC=C(C)C)c1 [Compound 28, 3-[Bis-(3,7,11-trimethyl-dodeca-2,6,10-trienyl)-amino]-4-hydroxy-benzoic acid methyl ester] | 48.5% | 20.7% | 83 ± 12% | 40.5 ± 19% |  | 
15 | COC(=O)c1ccc(O)c(N(C/C=C(\C)CCC=C(C)C)C/C=C(\C)CCC=C(C)C)c1 [Compound 29] | 71.3% | 40.4% | 2.5 ± 3.5% | 0 ± 0% |  | 
16 | COC(=O)c1ccc(OC)c(N(C/C=C(\C)CCC=C(C)C)C/C=C(\C)CCC=C(C)C)c1 [Compound 30] |  |  | 48 ± 6% | 33 ± 7% | 17.31% | 0.17%
17 | COC(=O)c1ccc(OC(C)=O)c(N(C/C=C(\C)CCC=C(C)C)C/C=C(\C)CCC=C(C)C)c1 [Compound 31] | 108% | 17.4% | 89.5 ± 18% | 4.5 ± 6% |  | 
18 | COC(=O)c1ccc(OC)c(N(CC=C(C)CCC=C(C)CCC=C(C)C)C(=O)OC(C)(C)C)c1 [Compound 33, 3-[tert-Butoxycarbonyl-(3,7,11-trimethyl-dodeca-2,6,10-trienyl)-amino]-4-methoxy-benzoic acid methyl ester] | 27.9% | 19.8% | 92 ± 4% | 61 ± 17% |  | 
19 | COC(=O)c1ccc(OC)c(NCC=C(C)CCC=C(C)CCC=C(C)CCC=C(C)C)c1 [Compound 34, 4-Methoxy-3-(3,7,11,15-tetramethyl-hexadeca-2,6,10,14-tetraenylamino)-benzoic acid methyl ester] | 34.7% | 19.1% | 100% | 100% |  | 
20 | COC(=O)c1ccc(OC)c(N(CC=C(C)CCC=C(C)CCC=C(C)CCC=C(C)C)CC=C(C)CCC=C(C)CCC=C(C)CCC=C(C)C)c1 [Compound 35, 3-[Bis-(3,7,11,15-tetramethyl-hexadeca-2,6,10,14-tetraenyl)-amino]-4-methoxy-benzoic acid methyl ester] | 105% | 97.9% | 91 ± 9% | 41 ± 14% |  | 
21 | COC(=O)c1ccc(OC)c(NCC=C(C)CCC=C(C)COC2CCCCO2)c1 (stereo not shown) [Compound 36, 3-[3,7-Dimethyl-8-(tetrahydro-pyran-2-yloxy)-octa-2,6-dienylamino]-4-methoxy-benzoic acid methyl ester] | 79.7% | 80.1% | 45 ± 12% | 7 ± 7% |  | 
22 | COc1ccc(C(=O)NCCCO)cc1N(C/C=C(\C)CCC=C(C)C)C/C=C(\C)CCC=C(C)C [Compound 42] | 106% | 110% |  |  |  | 
23 | CCCOc1ccc(C(=O)OC)cc1N(C/C=C(\C)CC/C=C(\C)CCC=C(C)C)CCC [Compound 44] | 79.6% | 8.26% |  |  |  | 
24 | COc1ccc(C(=O)/N=C(\N)NCCCO)cc1N(C/C=C(\C)CCC=C(C)C)C/C=C(\C)CCC=C(C)C [Compound 45] | 125% | 111% |  |  |  | 
25 | COc1ccc(C(=O)/N=C(\N)NCCO)cc1N(C/C=C(\C)CCC=C(C)C)C/C=C(\C)CCC=C(C)C [Compound 47] | 34.7% | 19.1% |  |  |  | 
